In US20230111310A1, “CARBOXYLIC ACID DERIVATIVE-SUBSTITUTED IMINO ARYL COMPOUND, PREPARATION METHOD THEREFOR, HERBICIDAL COMPOSITION AND USE THEREOF” (Qingdao Kingagroot Chemical Compound Co., Ltd., priority 2020, published 2023):

Tests used:
Test in all cases: Weeding effect in post-emergence stage
Assay type in all cases: in vivo
Conditions in all cases: level of fresh weight growth control rate
[1] = test system: Alopecurus japonicus
How it was run: (§1)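 Seeds are sown in soil-filled pots under 0.5-2 cm soil and grown 2 weeks in greenhouse. Plants at 2-3 leaves are sprayed with compound (acetone, Tween 80, 1.5 liter/ha methyl oleate EC, water) at 7.5 to 500 g/ha. Damage is rated 3 weeks later, averaging three repeats.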

[2] = test system: Digitaria sanguinalis
How it was run: as §1

[3] = test system: Eleusine indica
How it was run: as §1

[4] = test system: Setaria viridis
How it was run: as §1

[5] = test system: Abutilon theophrasti
How it was run: as §1

[6] = test system: Echinochloa crusgalli
How it was run: as §1

Row | Compound | Weeding effect in post-emergence stage, Alopecurus japonicus ([1]; Dose 15 g/ha) | Weeding effect in post-emergence stage, Digitaria sanguinalis ([2]; Dose 15 g/ha) | Weeding effect in post-emergence stage, Eleusine indica ([3]; Dose 15 g/ha) | Weeding effect in post-emergence stage, Setaria viridis ([4]; Dose 15 g/ha) | Weeding effect in post-emergence stage, Abutilon theophrasti ([5]; Dose 15 g/ha) | Weeding effect in post-emergence stage, Echinochloa crusgalli ([6]; Dose 15 g/ha) | Weeding effect in post-emergence stage, Alopecurus japonicus ([1]; Dose 30 g/ha) | Weeding effect in post-emergence stage, Digitaria sanguinalis ([2]; Dose 30 g/ha) | Weeding effect in post-emergence stage, Eleusine indica ([3]; Dose 30 g/ha) | Weeding effect in post-emergence stage, Setaria viridis ([4]; Dose 30 g/ha) | Weeding effect in post-emergence stage, Abutilon theophrasti ([5]; Dose 30 g/ha) | Weeding effect in post-emergence stage, Echinochloa crusgalli ([6]; Dose 30 g/ha) | further results
1 | C/C(=N\OC(=O)[C@@H](C)O/N=C/c1cc(-n2c(=O)cc(C(F)(F)F)n(C)c2=O)c(F)cc1Cl)C(C)C [250(R)] | 5 (Level 5: growth control rate is above 85%) | 5 (Level 5: growth control rate is above 85%) | 5 (Level 5: growth control rate is above 85%) | 5 (Level 5: growth control rate is above 85%) | 5 (Level 5: growth control rate is above 85%) | 5 (Level 5: growth control rate is above 85%) | – | – | – | – | – | – | –
2 | CCC(CC)=NOC(=O)[C@@H](C)O/N=C/c1cc(-n2c(=O)cc(C(F)(F)F)n(C)c2=O)c(F)cc1Cl [251(R)] | 5 (Level 5: growth control rate is above 85%) | 5 (Level 5: growth control rate is above 85%) | 5 (Level 5: growth control rate is above 85%) | 5 (Level 5: growth control rate is above 85%) | 5 (Level 5: growth control rate is above 85%) | 5 (Level 5: growth control rate is above 85%) | – | – | – | – | – | – | –
3 | CCO/C(C)=N/OC(=O)[C@@H](C)O/N=C/c1cc(-n2c(=O)cc(C(F)(F)F)n(C)c2=O)c(F)cc1Cl [252(R)] | 5 (Level 5: growth control rate is above 85%) | 5 (Level 5: growth control rate is above 85%) | 5 (Level 5: growth control rate is above 85%) | 5 (Level 5: growth control rate is above 85%) | 5 (Level 5: growth control rate is above 85%) | 5 (Level 5: growth control rate is above 85%) | – | – | – | – | – | – | –
4 | CCOC(=O)C(C)=NOC(=O)C(C)ON=Cc1cc(-n2c(=O)cc(C(F)(F)F)n(C)c2=O)c(F)cc1Cl [254(R)] | 5 (Level 5: growth control rate is above 85%) | 5 (Level 5: growth control rate is above 85%) | 5 (Level 5: growth control rate is above 85%) | 5 (Level 5: growth control rate is above 85%) | 5 (Level 5: growth control rate is above 85%) | 5 (Level 5: growth control rate is above 85%) | – | – | – | – | – | – | –
5 | C[C@@H](O/N=C/c1cc(-n2c(=O)cc(C(F)(F)F)n(C)c2=O)c(F)cc1Cl)C(=O)O/N=C/c1ccccc1 [255(R)] | – | – | – | – | – | – | 5 (Level 5: growth control rate is above 85%) | 5 (Level 5: growth control rate is above 85%) | 5 (Level 5: growth control rate is above 85%) | 5 (Level 5: growth control rate is above 85%) | 5 (Level 5: growth control rate is above 85%) | 5 (Level 5: growth control rate is above 85%) | –
6 | CC(C)=NOCCOC(=O)[C@@H](C)O/N=C/c1cc(-n2c(=O)cc(C(F)(F)F)n(C)c2=O)c(F)cc1Cl [259(R)] | – | – | – | – | – | – | 5 (Level 5: growth control rate is above 85%) | 5 (Level 5: growth control rate is above 85%) | 5 (Level 5: growth control rate is above 85%) | 5 (Level 5: growth control rate is above 85%) | 5 (Level 5: growth control rate is above 85%) | 5 (Level 5: growth control rate is above 85%) | –
7 | C[C@@H](O/N=C/c1cc(-n2c(=O)cc(C(F)(F)F)n(C)c2=O)c(F)cc1Cl)C(=O)Oc1ccccc1 [262(R)] | 5 (Level 5: growth control rate is above 85%) | 5 (Level 5: growth control rate is above 85%) | 5 (Level 5: growth control rate is above 85%) | 5 (Level 5: growth control rate is above 85%) | 5 (Level 5: growth control rate is above 85%) | 5 (Level 5: growth control rate is above 85%) | – | – | – | – | – | – | –
8 | C[C@@H](O/N=C/c1cc(-n2c(=O)cc(C(F)(F)F)n(C)c2=O)c(F)cc1Cl)C(=O)ON1C(=O)CCC1=O [263(R)] | – | – | – | – | – | – | – | – | – | – | – | – | Weeding effect in post-emergence stage, Alopecurus japonicus ([1]; Dose 60 g/ha): 5 (Level 5: growth control rate is above 85%); Weeding effect in post-emergence stage, Digitaria sanguinalis ([2]; Dose 60 g/ha): 5 (Level 5: growth control rate is above 85%); Weeding effect in post-emergence stage, Eleusine indica ([3]; Dose 60 g/ha): 5 (Level 5: growth control rate is above 85%); Weeding effect in post-emergence stage, Setaria viridis ([4]; Dose 60 g/ha): 5 (Level 5: growth control rate is above 85%); Weeding effect in post-emergence stage, Abutilon theophrasti ([5]; Dose 60 g/ha): 5 (Level 5: growth control rate is above 85%); Weeding effect in post-emergence stage, Echinochloa crusgalli ([6]; Dose 60 g/ha): 5 (Level 5: growth control rate is above 85%)
9 | C[C@@H](O/N=C/c1cc(-n2c(=O)cc(C(F)(F)F)n(C)c2=O)c(F)cc1Cl)C(=O)OCC1OCCO1 [266(R)] | – | – | – | – | – | – | 5 (Level 5: growth control rate is above 85%) | 5 (Level 5: growth control rate is above 85%) | 5 (Level 5: growth control rate is above 85%) | 5 (Level 5: growth control rate is above 85%) | 5 (Level 5: growth control rate is above 85%) | 5 (Level 5: growth control rate is above 85%) | –
10 | C[C@@H](O/N=C/c1cc(-n2c(=O)cc(C(F)(F)F)n(C)c2=O)c(F)cc1Cl)C(=O)OCc1cccs1 [268(R)] | – | – | – | – | – | – | 5 (Level 5: growth control rate is above 85%) | 5 (Level 5: growth control rate is above 85%) | 5 (Level 5: growth control rate is above 85%) | 5 (Level 5: growth control rate is above 85%) | 5 (Level 5: growth control rate is above 85%) | 5 (Level 5: growth control rate is above 85%) | –
11 | C[C@@H](O/N=C/c1cc(-n2c(=O)cc(C(F)(F)F)n(C)c2=O)c(F)cc1Cl)C(=O)OCc1ccccc1F [284(R)] | 5 (Level 5: growth control rate is above 85%) | 5 (Level 5: growth control rate is above 85%) | 5 (Level 5: growth control rate is above 85%) | 5 (Level 5: growth control rate is above 85%) | 5 (Level 5: growth control rate is above 85%) | 5 (Level 5: growth control rate is above 85%) | – | – | – | – | – | – | –
12 | C[C@@H](O/N=C/c1cc(-n2c(=O)cc(C(F)(F)F)n(C)c2=O)c(F)cc1Cl)C(=O)OCc1cccc(F)c1 [285(R)] | – | – | – | – | – | – | 5 (Level 5: growth control rate is above 85%) | 5 (Level 5: growth control rate is above 85%) | 5 (Level 5: growth control rate is above 85%) | 5 (Level 5: growth control rate is above 85%) | 5 (Level 5: growth control rate is above 85%) | 5 (Level 5: growth control rate is above 85%) | –
13 | C[C@@H](O/N=C/c1cc(-n2c(=O)cc(C(F)(F)F)n(C)c2=O)c(F)cc1Cl)C(=O)OCc1ccc(F)cc1 [286(R)] | – | – | – | – | – | – | 5 (Level 5: growth control rate is above 85%) | 5 (Level 5: growth control rate is above 85%) | 5 (Level 5: growth control rate is above 85%) | 5 (Level 5: growth control rate is above 85%) | 5 (Level 5: growth control rate is above 85%) | 5 (Level 5: growth control rate is above 85%) | –
14 | C[C@@H](O/N=C/c1cc(-n2c(=O)cc(C(F)(F)F)n(C)c2=O)c(F)cc1Cl)C(=O)OCc1cccnc1 [302(R)] | 5 (Level 5: growth control rate is above 85%) | 5 (Level 5: growth control rate is above 85%) | 5 (Level 5: growth control rate is above 85%) | 5 (Level 5: growth control rate is above 85%) | 5 (Level 5: growth control rate is above 85%) | 5 (Level 5: growth control rate is above 85%) | – | – | – | – | – | – | –
15 | C[C@@H](O/N=C/c1cc(-n2c(=O)cc(C(F)(F)F)n(C)c2=O)c(F)cc1Cl)C(=O)OCc1ccncc1 [303(R)] | 5 (Level 5: growth control rate is above 85%) | 5 (Level 5: growth control rate is above 85%) | 5 (Level 5: growth control rate is above 85%) | 5 (Level 5: growth control rate is above 85%) | 5 (Level 5: growth control rate is above 85%) | 5 (Level 5: growth control rate is above 85%) | – | – | – | – | – | – | –
